From publication PMC9448861 (Frontiers in Pharmacology, 2022)
Like-named read-outs stand apart in the source and are kept apart here.

Key:
[1] = tested on: mice subjected to CRS and CRS + ZnD; assay: Tail suspension test (TST) in mice subjected to CRS or CRS + ZnD; format: in vivo, C57BL/6J mice; details: three doses, 72 h after the last treatment
Method: (§1) All the compounds/drugs used in the study were obtained commercially, except for hyperforin (sodium salt), which was received as a gift from Dr. Wilmar Schwabe GmbH and Co (Karlsruhe, Germany). […] The control group received only 0.9% NaCl.
(§2) One week after acclimation, the mice were subjected to either a zinc-adequate feed (ZnA, 50 mg/kg) or zinc-deficient/low-Zn feed (ZnD, 3 mg/kg). Beginning from the second week, some ZnD mice were additionally subjected to 3 weeks of CRS. At the beginning of the 5th week, the mice were subjected to their appropriate treatment schedules or behavioral tests (see schemes in the figures).
(§3) CRS was performed in accordance with the procedures of [Ding et al. (2016]) with modifications. Mice from the stress groups were restrained in well-ventilated tubes with caps and holes for breathing (in a separate room from the control groups) for 3 h/day over 3 weeks. After each restraint period, the mice were transferred to housing cages. The control mice were housed at 6 mice per cage in an enriched environment and were handled every third day.
The TST was performed as described in a previous work ([Pochwat et al., 2018]). Briefly, each mouse was suspended individually by the tail using adhesive tape (2 cm from the tail tip) affixed to a solid flat surface, and immobility times were measured for 6 min. […]

[2] = tested on: treatment-resistant depression; parameters: method as in Serafini et al., 2014; details: ref Serafini et al., 2014; cited from earlier work
[3] = tested on: Zn levels in the Hp and FC; assay: Analysis of zinc (F-AAS) in the Hp and FC; format: in vivo, C57BL/6J mice; details: CRS + ZnD mice; three doses
Method: as §1
The samples were mineralized before the experiments. Briefly, three independent test portions of 0.5 g each were weighed from each sample and transferred to Teflon vessels. Then, 2 mL of 30% H2O2 and 6 mL of 65% HNO3 (V) were added, and the mixture was subjected to wet mineralization in a closed system in a Magnum II mineralizer (ERTEC). Mineralization was carried out for 75 min with three cycles of magnetron operation, where the first 30 min was at 60% power, next 15 min was at 80% power, and the remaining 30 min was at 100% power. The mineralized solution thus obtained was heated on a hot plate at 120 °C for 60 min to remove the excess reagents. The samples were then quantitatively transferred to 10 mL flasks and used to determine the zinc content via the F–AAS method (adsorption and emission technique). An atomic absorption spectrometer (iCE 3500, Thermo Scientific, UK) was used to measure the Zn content; each sample was analyzed independently thrice, and the obtained results are presented as mean value ± standard error of mean (SEM).

[4] = tested on: mice subjected to CRS and CRS + ZnD; assay: Sucrose preference test (SPT) in mice subjected to CRS or CRS + ZnD; format: in vivo, C57BL/6J mice; details: three doses (ketamine 10 mg/kg, Ro 10 mg/kg, Hyp 2.5 mg/kg + Lan 10 mg/kg), 24 h after the last treatment
Method: as §1, §2, §3
Seven days before the tests, the control and stressed mice were singly housed. The tests were carried out as follows. Two bottles (water and 1% sucrose solution) were placed in each cage 63 h before the test. Twenty-four hours later, the bottles were switched from right to left. Fifteen hours before the tests, the animals were deprived of food, water, and sucrose. The tests lasted 2 h, and sucrose preference was calculated as a percentage of the volume of sucrose intake over the total volume of fluid intake (water and sucrose solution). The SPT was performed during the light phase.

[5] = Pharmacokinetics of ketamine and its metabolite hydroxynorketamine in mouse serum, hippocampus and frontal cortex (noncompartmental analysis, LC-MS/MS); format: in vivo, C57BL/6J mice; details: for AUC0-∞ / t0.5λz / tmax / Cmax / MRT / k el / CL/F / Vd/F: ketamine 10 mg/kg i.p.; for Kp / Cmax / MRT / k el / CL/F / Vd/F: male, C57BL/6J, mouse, 10 mg/kg; for Kp: intraperitoneal; for Cmax / MRT / k el / CL/F / Vd/F: ip; for Cmax: read-out: Cmax; for MRT: read-out: MRT (converted); for k el: read-out: λz (converted); for Vd/F: read-out: Vz/F
[6] = frontal cortex, frontal cortex, CRS + ZnD mice
[7] = frontal cortex, frontal cortex, CRS mice
[8] = frontal cortex, frontal cortex, Control mice
[9] = hippocampus, hippocampus, CRS + ZnD mice
[10] = hippocampus, hippocampus, CRS mice
[11] = hippocampus, hippocampus, Control mice

**Q.** For `CNC1(c2ccccc2Cl)CCCCC1=O` (centres unmarked) [Ketamine, ketamine], which “immobility time in the TST” value [1] is on record?
**A.** ineffective

**Q.** What about the estimated efficacy [2] of the same molecule?
**A.** 50–70%

**Q.** And the “Zn levels in the Hp and FC” value [3]?
**A.** reduced the Zn levels

**Q.** What about the “sucrose preference in the SPT” value ([4]; CRS + ZnD mice) of the same molecule?
**A.** failed to restore sucrose preference

**Q.** What about the “sucrose preference in the SPT” value ([4]; CRS mice) of the same molecule?
**A.** restored the sucrose preference

**Q.** What about the “AUC0-∞” value ([5]; frontal cortex, CRS + ZnD mice) of the same molecule?
**A.** 65.97 µg·min/g

**Q.** What about the t0.5λz ([5]; frontal cortex, CRS + ZnD mice) of the same molecule?
**A.** 32.31 min

**Q.** And the tmax ([5]; frontal cortex, CRS + ZnD mice)?
**A.** 10 min

**Q.** What about the “AUC0-∞” value ([5]; frontal cortex, CRS mice) of the same molecule?
**A.** 106.58 µg·min/g

**Q.** And the t0.5λz ([5]; frontal cortex, CRS mice)?
**A.** 34.92 min

**Q.** What about the tmax ([5]; frontal cortex, CRS mice) of the same molecule?
**A.** 10 min

**Q.** What about the “AUC0-∞” value ([5]; frontal cortex, Control mice) of the same molecule?
**A.** 97.81 µg·min/g

**Q.** And the t0.5λz ([5]; frontal cortex, Control mice)?
**A.** 30.49 min

**Q.** And the “AUC0-∞” value ([5]; hippocampus, CRS + ZnD mice)?
**A.** 58.49 µg·min/g

**Q.** What about the t0.5λz ([5]; hippocampus, CRS + ZnD mice) of the same molecule?
**A.** 42.69 min

**Q.** What about the tmax ([5]; hippocampus, CRS + ZnD mice) of the same molecule?
**A.** 10 min

**Q.** And the “AUC0-∞” value ([5]; hippocampus, CRS mice)?
**A.** 96.13 µg·min/g

**Q.** And the t0.5λz ([5]; hippocampus, CRS mice)?
**A.** 39.68 min

**Q.** And the tmax ([5]; hippocampus, CRS mice)?
**A.** 10 min

**Q.** And the “AUC0-∞” value ([5]; hippocampus, Control mice)?
**A.** 80.90 µg·min/g

**Q.** And the t0.5λz ([5]; hippocampus, Control mice)?
**A.** 37.36 min

**Q.** What about the Kp ([5]; brain structure (not specified) / serum, CRS + ZnD animals, read-out: tissue-to-serum AUC ratio for the parent drug) of the same molecule?
**A.** 1.3

**Q.** And the Kp ([5]; brain structure (not specified) / serum, CRS + ZnD animals, read-out: tissue-to-serum Cmax ratio for the parent drug)?
**A.** 1

**Q.** What about the Cmax [5, 6] of the same molecule?
**A.** 2650 ng/g

**Q.** What about the MRT [5, 6] of the same molecule?
**A.** 28.8 min

**Q.** And the k el [5, 6]?
**A.** 0.000367 s⁻¹

**Q.** And the Cmax [5, 7]?
**A.** 3030 ng/g

**Q.** And the MRT [5, 7]?
**A.** 28.4 min

**Q.** What about the k el [5, 7] of the same molecule?
**A.** 0.000333 s⁻¹

**Q.** What about the Cmax [5, 8] of the same molecule?
**A.** 3460 ng/g

**Q.** What about the MRT [5, 8] of the same molecule?
**A.** 30.1 min

**Q.** What about the k el [5, 8] of the same molecule?
**A.** 0.000383 s⁻¹

**Q.** And the Kp ([5]; hippocampus and frontal cortex / serum, control and stress (CRS) groups, Hp and FC, read-out: tissue-to-serum Cmax and AUC ratios for the parent drug)?
**A.** 2.45 to 2.84

**Q.** What about the Cmax [5, 9] of the same molecule?
**A.** 2310 ng/g

**Q.** And the MRT [5, 9]?
**A.** 31.3 min

**Q.** And the k el [5, 9]?
**A.** 0.000267 s⁻¹

**Q.** And the Cmax [5, 10]?
**A.** 3180 ng/g

**Q.** What about the MRT [5, 10] of the same molecule?
**A.** 28.5 min

**Q.** What about the k el [5, 10] of the same molecule?
**A.** 0.000283 s⁻¹

**Q.** And the Cmax [5, 11]?
**A.** 2990 ng/g

**Q.** And the MRT [5, 11]?
**A.** 30.4 min

**Q.** What about the k el [5, 11] of the same molecule?
**A.** 0.000317 s⁻¹

**Q.** What about the CL/F ([5]; serum, serum, CRS + ZnD mice) of the same molecule?
**A.** 220 mL/min/kg

**Q.** And the Cmax ([5]; serum, serum, CRS + ZnD mice)?
**A.** 2150 ng/mL

**Q.** And the MRT ([5]; serum, serum, CRS + ZnD mice)?
**A.** 22 min

**Q.** And the Vd/F ([5]; serum, serum, CRS + ZnD mice)?
**A.** 11.6 L/kg

**Q.** And the k el ([5]; serum, serum, CRS + ZnD mice)?
**A.** 0.000317 s⁻¹

**Q.** And the Cmax ([5]; serum, serum, CRS mice)?
**A.** 1120 ng/mL

**Q.** What about the MRT ([5]; serum, serum, CRS mice) of the same molecule?
**A.** 29.8 min

**Q.** What about the Vd/F ([5]; serum, serum, CRS mice) of the same molecule?
**A.** 14.6 L/kg

**Q.** What about the k el ([5]; serum, serum, CRS mice) of the same molecule?
**A.** 0.000317 s⁻¹

**Q.** What about the Cmax ([5]; serum, serum, Control mice) of the same molecule?
**A.** 1130 ng/mL

**Q.** And the MRT ([5]; serum, serum, Control mice)?
**A.** 34.2 min

**Q.** What about the Vd/F ([5]; serum, serum, Control mice) of the same molecule?
**A.** 16 L/kg

**Q.** What about the k el ([5]; serum, serum, Control mice) of the same molecule?
**A.** 0.000317 s⁻¹

**Q.** And the CL/F ([5]; serum, CRS mice)?
**A.** 270 mL/min/kg

**Q.** And the CL/F ([5]; serum, Control mice)?
**A.** 300 mL/min/kg

**Q.** What about the t0.5λz ([5]; serum, CRS + ZnD mice) of the same molecule?
**A.** 35.93 min

**Q.** And the tmax ([5]; serum, CRS + ZnD mice)?
**A.** 10 min

**Q.** And the t0.5λz ([5]; serum, CRS mice)?
**A.** 37.06 min

**Q.** And the tmax ([5]; serum, CRS mice)?
**A.** 10 min

**Q.** And the t0.5λz ([5]; serum, Control mice)?
**A.** 36.70 min
